“Also recorded” adds a separate entry of the source.

Results on 1 compound are retold here after patent US5006512A, “Therapeutic usages of inhibitors for a potassium efflux channel” (priority 1988, dated 1991).

The subject of one series is mice. In words: Acute toxicity (LD50) in mice, i.p. In kind it is in vivo.
For another series, the system named is brain ischemia. In words: Brain focal ischemia, water content of hemisphere (brain edema). The following applies: 0.14 mg/kg i.v. thirty minutes prior to ischemic insult; 1 hour focal ischemia. It is filed as in vivo, rat. Here is the method:
(§1) (a) Surgical procedures: Adults male Sprague-Dwaley rats weighing 250-300 g were used in these studies. Anesthesia was induced and maintained with halothane (1.0-2.5%) via closely fitted facial mask. Bilateral common carotid arteries (CCA) were exposed gently and the right CCA was ligated in two places by 4-0 silk suture. To expose the right middle cerebral artery (MCA), the temporal muscles were cut and retracted, then, a small temporal craniotomy (2=2 mm) was performed with a microdrill. Under a microscope, the dura matter was opened with a 26 guage needle, and the MCA was ligated by 10-0 suture with a square knot. Immediately, the left CCA was occluded by a microaneurysmal clip. After the operation, the animal was returned to the cage. One hour later, the left CCA clip was released under awake condition. The sham-operated control was produced in a similar procedure, except for the ligation and clipping of vessels. The operation was usually finished within 30 min.
(b) Water content and ionic analysis: After fixed time interval (1, 3, and 7 days), the animal was sacrificed and the excised cerebral hemispheres were placed in preweighed crucible and measured an wet weight (W.W) with a chemical balance (Mettler, AE 100). […] The water content (% wet weight) was calculated by (W.W -D.W)/W.W. […]

The subject of the next series is brain focal ischemia. In words: Brain focal ischemia, motor performance test. In kind it is in vivo, rat. The following applies: 0.14 mg/kg. The protocol: as §1, with “The sham-operated control was produced in a similar procedure, except for the ligation and clipping of vessels. The operation was usually finished within 30 min.” left out
(c) Motor performance test: The disturbance of motor function was evaluated by the total score obtained from inclined plate test, balance beam test and prehensile test. These motor performance tests were dsesigned to quantify the motor weakness in the global ischemia rats. […] The animal was placed at the highest position of the plate and the time which it could stay on the plate was measured untill 30 sec. […] The time spent on the rod was recorded untill 30 sec. […] The time spent in hanging on the rope was measured untill 30 sec. […]

For another series, the system named is sickle red blood cells. In words: Formation of irreversibly sickled cells by sickling-unsickling cycling in vitro. In kind it is cell-based. An excerpt:
The inventor previously developed a method to produce irreversibly sickled cells (ISC, which have irreversibly denatured membranes) by exposing sickle red blood cells to a repeated sickling-unsickling cycling in vitro. He used this system to determine the efficacy of a drug in protecting cell membranes (Ohnishi, Br. J. Haematol. 55:665-671, 1983). […] These heavy cells were collected, the amount measured, and the percentage of production calculated (Table 3). As shown in the Table, MR-103 inhibited the formation of irreversibly denatured cells at an extremely low concentration. Even at 20 nM, it inhibited the production of denatured cell almost 50%. […] The subfragment comound MR-117 was also found to have a remarkable effect (Table 4). At a concentration of 60 nM, it inhibited the formation of denatured cells by more than 50%.

On to `CSCC[C@@H]1NC(=O)[C@H](CS)NC(=O)[C@H](CCCCN)NC(=O)CNC(=O)[C@H](CCCNC(=N)N)NC(=O)[C@H](CO)NC(=O)[C@H]([C@@H](C)O)NC(=O)[C@H](CC(N)=O)NC(=O)[C@H](Cc2c[nH]cn2)NC(=O)[C@H](CC(C)C)NC(=O)[C@H](CCCNC(=N)N)NC(=O)[C@H](CCC(N)=O)NC(=O)[C@@H]2CSSC[C@@H](C(=O)N[C@@H](Cc3ccc(O)cc3)C(=O)N[C@@H](CO)C(=O)O)NC(=O)[C@H](CCCNC(=N)N)NC(=O)[C@H](CSSC[C@H](N)C(=O)N[C@@H](Cc3c[nH]c4ccccc34)C(=O)N[C@@H](CO)C(=O)N[C@@H](C(C)C)C(=O)N2)NC(=O)[C@H](CCCCN)NC(=O)[C@H](CCCCN)NC(=O)[C@H](CC(N)=O)NC1=O` [MR-117], for which the “Acute toxicity (LD50)” value in the series with mice amounted to 0.92 mg/kg. Further, the “increase of water content of ischemia-exposed hemisphere” value in the series on brain ischemia was “inhibited the increase of water content; also recorded: much reduced”. Further, in the series on brain focal ischemia (1 hour focal ischemia, 3 and 7 days), the “effect on motor performance after brain focal ischemia (in words)” value is reported as “remarkable recovery effect”. The “Motor Score” value in the series on brain focal ischemia (3 days after ischemia, scale 0-12, no drug 6.93, sham 11.13) is reported as 9.50 ± 0.56. Moreover, the Irreversibly sickling cells amounted to 14.8 percentages in the series on sickle red blood cells (60 nM drug during cycling), 10.3 percentages in the series with sickle red blood cells (100 nM drug during cycling) and 0 percentages with sickle red blood cells (200 nM drug during cycling). The Reversibly sickling cells with sickle red blood cells (60 nM drug during cycling) was found to be 85.2 percentages; with sickle red blood cells (100 nM drug during cycling), 89.7 percentages; in the series with sickle red blood cells (200 nM drug during cycling), 100 percentages.
